Laboratory results from patent US4418060A, “Therapeutically active complexes of tetracyclines” (priority 1971, dated 1983).

Columns and labels:
[1] = Toxicity data (LD50) of tetracyclines and Tri-tetracyclines in mice; settings: mouse, in vivo, oral
[2] = Chloroform/water distribution quotient; type: physicochemical; settings: pH=7.4
From the text: The solution is filled into ampoules in nitrogen atmosphere.

[3] = background statement; cited from earlier work
[4] = cited from earlier work
[5] = tested on: tetracycline-resistant Proteus strains; settings: cited from earlier work
[6] = cited from earlier work; remark: listed apart in the source
[7] = per os; cited from earlier work
[8] = cited from earlier work; remark: listed apart in the source

In the case of `CN(C)[C@@H]1C(=O)C(C(N)=O)=C(O)[C@@]2(O)C(=O)C3=C(O)c4c(O)cccc4[C@@](C)(O)[C@H]3[C@H](O)[C@@H]12` [OTC, 5-hydroxytetracycline], the LD50 [1] is reported as 2500 mg/kg and the “chloroform/water distribution quotient K” value [2] is reported as 0.008.
For `CC(=O)C1=C(O)C2(O)C(=O)c3c(c(C)c4ccc(C)c(O)c4c3O)CC2C(N)C1=O` (stereo not drawn) [chelocardin, 2-decarboxamido-2-acetyl-4-dedimethylamino-4-epiamino-9-methyl-5a,6-anhydrotetracyline], the water solubility [3] is given as “lower than that of other tetracyclines”, the lipid solubility [4] is given as “moderately lipid soluble” and the “effect against tetracycline-resistant Proteus” value [5] is given as “effective”. For the same molecule, the absorption ([6]; peroral) was “low absorption value”.
For `C[C@H]1c2cccc(O)c2C(O)=C2C(=O)[C@]3(O)C(O)=C(C(N)=O)C(=O)[C@@H](N(C)C)[C@@H]3[C@@H](O)[C@@H]21` [doxycycline, 6-deoxy-5-hydroxytetracycline], the excretion ([6]; in vivo) is listed as “with faeces as well” and the gastrointestinal disorders [7] is listed as “gastrointestinal disorders can be observed”.
In the case of `NC(CO)(CO)CO` [tris(hydroxymethyl)aminomethane], the pK [8] is listed as 8.33.
